Experimental data reported in US10597378B2 (priority 2017, dated 2020).
Read-outs that look alike come from different tables or passages of the source.

Columns and labels:
human mu-opioid receptor = biological target: T1, human mu-opioid receptor (Homo sapiens, UniProt P35372); assay: cell-based; format: cell-based
T1 construct: expressed in transfected cells; host or cells: HEK-293 (HEK-MOR), kept under G418
Protocol: Cells (72,000 per well) were plated in 100 μl/well of DMEM in 96-well solid-bottom white plates (GIBCO) and 50 μl/well of drug in HBSS in the presence of forskolin and 3-isobutyl-1-methylxanthine at final concentrations of 1 μM and 500 μM, respectively. After 30 min of incubation at room temperature, the concentration of cyclic adenosine monophosphate was determined using a LANCE Ultra cAMP Assay kit (PerkinElmer).
As MOR belongs to the GPCR family, activation of MOR leads to a decrease in intracellular cAMP level.

myc-tagged human MOR = biological target: T2, myc-tagged human MOR (Homo sapiens, UniProt P35372); assay: cell-based
T2 construct: myc; host or cells: mouse pituitary AtT-20 cells

[1] = test system: wild-type C57BL/6 (B6) mice; assay: Tail flick test (acute thermal pain); format: in vivo, mouse
mice = assay: Tolerance and cross-tolerance, tail-flick test after 5 days twice-daily treatment; format: in vivo, mouse; details: day 6, equianalgesic dose
[2] = test system: oxaliplatin-injected B6 mice; assay: Oxaliplatin-induced neuropathic pain, mechanical allodynia (Von Frey test); format: in vivo, mouse; details: PID 3, 30 min after treatment, equi-antinociceptive doses
Protocol: (§1) To induce neuropathic pain, each B6 mouse was intraperitoneally injected with either oxaliplatin (3.0 mg/kg), or vehicle (saline) after habituation to the test environment and baseline measurements of pain sensitivity. […] To induce cancer pain, each B6 mouse was injected with either 20 μL phosphate-buffered saline or cells (6×10^5 cells/20 μL phosphate-buffered saline) in the footpad of the right hind paw under isoflurane anesthesia on post-inoculation day 0. On post-inoculation day 19, i.e., the test day, mice were placed on a mesh floor with 5×5 mm holes, covered with a cup to prevent visual stimulation, and allowed to adapt for 1 h prior to testing. […] The tests were initiated with 0.5 g force. Briefly, whenever a withdrawal response occurred, the next weaker von Frey filament was applied. On the other hand, whenever no withdrawal response occurred, the next stronger filament was applied. Mechanical allodynia was defined as changes in the amount of pressure to induce the hind paw withdrawal.
This treatment paradigm was followed to produce neuropathic pain mice.

[3] = test system: melanoma cell-implanted B6 mice; assay: Cancer-induced pain (B16-F1 melanoma), mechanical allodynia (Von Frey test); format: in vivo, mouse
Protocol: as §1, with “On post-inoculation day 19, i.e., the test day, mice were placed on a mesh floor with 5×5 mm holes, covered with a cup to prevent visual stimulation, and allowed to adapt for 1 h prior to testing.” left out
(§2) The cold allodynia was tested using acetone drop test and mechanical allodynia was measured using the Von Frey test to examine the antinociceptive effects of each drug treatment.

[4] = test system: melanoma cell-implanted B6 mice; assay: Cancer-induced pain, cold allodynia (acetone drop test); format: in vivo, mouse; details: PID18, 30 min after treatment
Protocol: In cancer-induced pain model, cold allodynia in mice was assessed by using the acetone test. Absolute acetone (100%) in a volume of 5 μL was placed on the base of the paw in mice. […]
as §2

MOR [5] = biological target: T3, MOR (Homo sapiens, UniProt P35372); assay: cell-based; design: host or cells: CHO-K1 (CHO-K1-MOR)
Protocol: The PathHunter G protein-coupled receptor β-arrestin-2 assay (DiscoveRx) was performed according to the manufacturer's protocol. Briefly, when β-arrestin-2 translocates to the active receptor, complementary β-galactosidase fragments fused to the receptor and β-arrestin-2 interact to form a functional enzyme, which can be detected by chemiluminescence.
Cells (5,000 per well) were then seeded in black 384-well assay plates with a CP2 reagent (DiscoveRx) and incubated for 24 h before running the assay. After each treatment, cells were incubated at room temperature for 1.5 h, followed by the addition of 8 μl of the PathHunter Detection reagent (DiscoveRx) and incubated for 1 h. Luminescence was detected using a Victor 2 plate reader. Studies were performed on the same day and the same passage of cells was used to ensure accurate comparisons of data.
Opioid receptors have been reported to couple to G protein-independent β-arrestin-2-mediated pathways. […] The potency of the above three molecules in a β-arrestin-2 recruitment assay (PathHunter), which was based on enzyme complementation in Chinese hamster ovary (CHO)-K1 cells expressing human MOR (CHO-K1-MOR), was further examined.

MOR [6] = biological target: T3, MOR; format: cell-based; design: host or cells: CHO-K1 (CHO-K1-MOR)
B6 mice = assay: Cardiovascular function test (tail cuff plethysmography); details: acute, equi-antinociceptive doses
MOR [7] = biological target: T3, MOR; assay: cell-based; design: expressed in transfected cells; host or cells: CHO-K1/MOR/Ga15 cells; details: read-out: FLIPR Ca2+ EC50
Protocol: In an exemplary in vitro assay for identifying MOR agonists, cells that express a MOR are treated with a test compound in a cellular calcium fluorescent assay and calcium fluorescence intensity is then measured to determine whether the MOR is activated. A test compound is identified as a MOR agonist if the MOR is activated.
EC50 herein refers to the concentration of a compound that induces a response halfway between the baseline and the maximum after a specified exposure time. AUC refers to the area under the response curve, an indication of the compound's capability of activating a MOR.
One day before the assay, CORNING® black with clear flat bottom 96-well assay plates were coated with a 0.1 mg/mL Poly-L-Lysine solution. CHO-K1/MOR/Ga15 cells were suspended in the F12 medium and plated at a density of about 8×10^4 cells/well in […] medium. Cells were incubated in a humidified atmosphere of 10% CO2 at 37° C. overnight so as to reach an 80-90% confluent cell monolayer before the assay. On the day of the assay, 150 μL medium/well was removed from plate. […] Compounds and other reagents were dissolved in the assay buffer. […] The [Ca^2+]i fluorescence was measured up to 90 s after agonist injection.

T3 sequence (P35372 whole entry, the tested form may be a part): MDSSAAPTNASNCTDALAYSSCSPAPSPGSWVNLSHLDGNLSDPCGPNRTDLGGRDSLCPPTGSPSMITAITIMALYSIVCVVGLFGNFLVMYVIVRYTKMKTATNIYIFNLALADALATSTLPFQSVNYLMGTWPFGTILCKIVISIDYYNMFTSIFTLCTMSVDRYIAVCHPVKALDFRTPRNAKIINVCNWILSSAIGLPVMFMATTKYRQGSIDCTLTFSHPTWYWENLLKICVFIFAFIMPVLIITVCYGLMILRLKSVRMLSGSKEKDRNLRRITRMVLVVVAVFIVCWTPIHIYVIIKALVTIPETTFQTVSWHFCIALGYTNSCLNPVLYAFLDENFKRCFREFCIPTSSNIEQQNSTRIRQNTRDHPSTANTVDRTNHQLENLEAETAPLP
T1 sequence (P35372 whole entry): as the sequence (P35372 whole entry, the tested form may be a part) above
T2 sequence (P35372 whole entry): as the sequence (P35372 whole entry, the tested form may be a part) above

## CN1CCc2ccccc2C1CNC(=O)c1ccc(Cl)c(Cl)c1 (stereo not drawn) [Compound 67, 3,4-Dichloro-N-[(2-methyl-1,2,3,4-tetrahydro-1-isoquinolinyl)methyl]benzamide]
Human mu-opioid receptor
  EC50: 0.00063 µM
  cAMP production: significantly decreased cAMP production
myc-tagged human MOR
  EC50: 0.0599 µM
  Emax of membrane potential hyperpolarization: slightly higher than that of morphine
[1]; Mus musculus, sc, single subcutaneous injection, read-out: ED50 of antinociception
  ED50: 0.78 mg/kg
[1]; equi-antinociceptive doses, B6 mice
  time at which analgesic effects were exerted after acute injection: 10 min
[1]; single dose subcutaneous injection, 30-120 min
  antinociception (% of MPE, AUC): produced equi-antinociceptive effects at doses of 0.6-1.8 mg/kg
mice
  antinociceptive effects on challenge in morphine-tolerant mice: significant increase in antinociceptive effects
[2]
  antinociceptive effect in oxaliplatin-induced sensory allodynia: comparable to that of morphine
[3]; 30 min on PID 21 and PID 23
  antinociceptive effect after twice daily injection: more than that of morphine
[3]; PID19, 30 min after treatment, equi-antinociceptive doses
  withdrawal threshold: greater than that of morphine
[4]
  licking and shaking frequency: less than that of morphine
MOR [5]
  EC50: 1.9 µM
  Emax of β-arrestin recruitment relative to morphine: 3 fold
  β-arrestin recruitment, comparison: more β-arrestin recruitment than that in morphine but induced less β-arrestin recruitment than Met-5
MOR [6]
  MOR internalization: approximately two-fold that of the maximal responses of morphine
B6 mice
  cardiovascular function: minimal effect on cardiovascular function
MOR [7]
  EC50: 0.01 µM
